The values below come from US7317037B2, “Progesterone receptor modulators comprising pyrrole-oxindole derivatives and uses thereof” (Wyeth, priority 2004, dated 2008).

For this test, the target named is T1, progesterone receptor (PR) (Homo sapiens, UniProt P06401).
T1 construct: Effects of Progestins and Antiprogestins on Alkaline Phosphatase Activity in T47D Cells; endogenous in cells; host or cells: T47D cells
T1 sequence (P06401 1-933): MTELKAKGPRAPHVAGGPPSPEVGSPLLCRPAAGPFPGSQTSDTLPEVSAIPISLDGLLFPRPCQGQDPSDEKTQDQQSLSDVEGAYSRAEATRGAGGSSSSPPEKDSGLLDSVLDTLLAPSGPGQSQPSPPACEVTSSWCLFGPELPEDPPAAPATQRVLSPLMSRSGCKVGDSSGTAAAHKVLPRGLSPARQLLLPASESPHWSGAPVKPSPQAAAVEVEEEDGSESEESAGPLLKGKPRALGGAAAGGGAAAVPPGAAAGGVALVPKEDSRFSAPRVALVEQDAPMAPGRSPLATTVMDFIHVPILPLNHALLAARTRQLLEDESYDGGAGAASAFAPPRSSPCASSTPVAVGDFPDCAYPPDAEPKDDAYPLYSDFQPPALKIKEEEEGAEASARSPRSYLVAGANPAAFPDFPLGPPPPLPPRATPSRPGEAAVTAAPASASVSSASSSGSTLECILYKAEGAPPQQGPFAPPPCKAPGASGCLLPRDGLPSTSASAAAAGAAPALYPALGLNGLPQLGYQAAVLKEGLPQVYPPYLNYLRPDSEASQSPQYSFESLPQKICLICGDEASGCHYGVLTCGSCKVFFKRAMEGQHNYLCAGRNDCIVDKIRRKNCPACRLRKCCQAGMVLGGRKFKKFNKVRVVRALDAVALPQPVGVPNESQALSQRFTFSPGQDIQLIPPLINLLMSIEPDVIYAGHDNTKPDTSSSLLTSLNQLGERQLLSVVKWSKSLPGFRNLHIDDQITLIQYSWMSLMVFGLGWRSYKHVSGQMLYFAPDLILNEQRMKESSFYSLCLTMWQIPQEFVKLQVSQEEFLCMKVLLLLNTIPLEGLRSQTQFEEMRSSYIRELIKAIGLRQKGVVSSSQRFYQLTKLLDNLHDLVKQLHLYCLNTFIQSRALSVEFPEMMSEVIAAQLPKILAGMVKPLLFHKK
The experiment in a line: T47D cell alkaline phosphatase assay (antagonist mode). Format: cell-based. The settings on record: T47D cells, antagonist mode in the presence of 1 nM progesterone, 24 hours; read-out: IC50 (nM), T47D Cell Alkaline Phosphatase Assay. As for the experimental part:
A. Effects of Progestins and Antiprogestins on Alkaline Phosphatase Activity in T47D Cells (T47D Alkaline Phosphatase Assay)
Culture medium: DMEM:F12 (1:1) (GIBCO, BRL) supplemented with 5% (v/v) charcoal stripped fetal bovine serum (not heat-inactivated), 100 U/mL penicillin, 100 μg/mL streptomycin, and 2 mM GlutaMax (GIBCO, BRL).
Alkaline phosphatase assay buffer: I. 0.1M Tris-HCl, pH 9.8, containing 0.2% Triton X-100, 0.1M Tris-HCl, pH 9.8, containing 4 mM p-nitrophenyl phosphate (Sigma).
2. Cell Culture and Treatment:
Frozen T47D cells are thawed in a 37° C. water bath and diluted to 280,000 cells/mL in culture medium. To each well in a 96-well plate (Falcon, Becton Dickinson Labware), 180 μl of diluted cell suspension is added. Twenty μl of reference or test compounds diluted in the culture medium is then added to each well. When testing for progestin antagonist activity, reference antiprogestins or test compounds are added in the presence of 1 nM progesterone. The cells are incubated at 37° C. in a 5% CO2 humidified atmosphere for 24 hours. For high throughput screening, one concentration of each compound will be tested at 0.3 μg/mL. Based on an average molecular weight of 300 g/mol for the compounds in the library, the concentration is approximately 1 μM. Subsequently, active compounds will be tested in dose response assays to determine EC50 and IC50.
3. Alkaline Phosphatase Enzyme Assay:
At the end of treatment, the medium is removed from the plate. Fifty μl of assay buffer I is added to each well. The plates are shaken in a titer plate shaker for 15 min. Then 150 μl of assay buffer II is added to each well. Optical density measurements are taken at 5 min intervals for 30 min at a test wavelength of 405 nm.
4. Analysis of Dose-Response Data.
For reference and test compounds, a dose response curve is generated for dose vs. the rate of enzyme reaction (slope). Square root-transformed data are used for analysis of variance and nonlinear dose response curve fitting for both agonist and antagonist modes. Huber weighting is used to down-weight the effects of outliers. EC50 or IC50 values are calculated from the retransformed values. JMP software (SAS Institute, Inc.) is used for both one-way analysis of variance and non-4 linear dose response analysis in both single dose and dose response studies.
Progesterone and trimegestone are reference progestins and RU486 is the reference antiprogestin. All reference compounds are run in full dose response curves and the EC50 and IC50 values are calculated.
The term IC50 denotes the concentration that gives 50% inhibition. As to `Cn1c(C#N)ccc1-c1cc(F)c2c(c1)C(C)(C)C(=O)N2C1CCCC1` [5-(1-cyclopentyl-7-fluoro-3,3-dimethyl-2-oxo-2,3-dihydro-1H-indol-5-yl)-1-methyl-1H-pyrrole-2-carbonitrile], the IC50 worked out at 25.2 nM.

Consider `CC1(C)C(=O)Nc2c(F)cc(-c3ccc(C#N)[nH]3)cc21` [5-(7-fluoro-3,3-dimethyl-2-oxo-2,3-dihydro-1H-indol-5-yl)-1H-pyrrole-2-carbonitrile], for which the IC50 was 107 nM.

For the compound `Cn1c(C#N)ccc1-c1cc(F)c2c(c1)C1(CCC1)C(=O)N2` [5-(7′-fluoro-2′-oxo-1′,2′-dihydrospiro[cyclobutane-1,3′-indol]-5′-yl)-1-methyl-1H-pyrrole-2-carbonitrile], the IC50 stood at 2.75 nM.

As to `Cn1c(C#N)ccc1-c1ccc2c(c1F)C(C)(C)C(=O)N2` [5-(4-fluoro-3,3-dimethyl-2-oxo-2,3-dihydro-1H-indol-5-yl)-1-methyl-1H-pyrrole-2-carbonitrile], the IC50 amounted to 30 nM.

For the compound `CCCN1C(=O)C(C)(C)c2cc(-c3ccc(C#N)n3C)cc(F)c21` [5-(7-fluoro-3,3-dimethyl-2-oxo-1-propyl-2,3-dihydro-1H-indol-5-yl)-1-methyl-1H-pyrrole-2-carbonitrile], the IC50 came out at 26.5 nM.

`Cn1c(C#N)ccc1-c1cc(F)c2c(c1)C(C)(C)C(=O)N2C1CCCCC1` [5-(1-cyclohexyl-7-fluoro-3,3-dimethyl-2-oxo-2,3-dihydro-1H-indol-5-yl)-1-methyl-1H-pyrrole-2-carbonitrile]: the IC50 is 194 nM.

Take `Cn1c(C#N)ccc1-c1ccc2c(c1F)C1(CC1)C(=O)N2` [5-(4′-fluoro-2′-oxo-1′,2′-dihydrospiro[cyclopropane-1,3′-indol]-5′yl)-1-methyl-1H-pyrrole-2-carbonitrile]: the IC50 is 7.8 nM.

Consider `CN1C(=O)C(C)(C)c2cc(-c3ccc(C#N)n3C)cc(F)c21` [5-(7-Fluoro-1,3,3-trimethyl-2-oxo-2,3-dihydro-1H-indol-5-yl)-1-methyl-1H-pyrrole-2-carbonitrile], for which the IC50 is 22.3 nM.

Take `Cn1c(C#N)ccc1-c1cc(F)c2c(c1)C1(CCCC1)C(=O)N2` [5-(7′-fluoro-2′-oxo-1′,2′-dihydrospiro[cyclopentane-1,3′-indol]-5′-yl)-1-methyl-1H-pyrrole-2-carbonitrile]: the IC50 was 3.2 nM.

As for `CC(C)(C)OC(=O)n1c(C#N)ccc1-c1cc(F)c2c(c1)C(C)(C)C(=O)N2` [tert-butyl 2-cyano-5-(7-fluoro-3,3-dimethyl-2-oxo-2,3-dihydro-1H-indol-5-yl)-1H-pyrrole-1-carboxylate], the IC50 turned out to be 125 nM.

As to `Cn1c(C#N)ccc1-c1cc(F)c2c(c1)C(C)(C)C(=O)N2CCc1ccccc1` [5-[7-fluoro-3,3-dimethyl-2-oxo-1-(2-phenylethyl)-2,3-dihydro-1H-indol-5-yl]-1-methyl-1H-pyrrole-2-carbonitrile], the half-maximal inhibitory concentration (IC50) came out at 351 nM.

With `CC(C)N1C(=O)C(C)(C)c2cc(-c3ccc(C#N)n3C)cc(F)c21` [5-(7-fluoro-1-isopropyl-3,3-dimethyl-2-oxo-2,3-dihydro-1H-indol-5-yl)-1-methyl-1H-pyrrole-2-carbonitrile], the IC50 is 13 nM.

For `CCN1C(=O)C(C)(C)c2cc(-c3ccc(C#N)n3C)cc(F)c21` [5-(1-ethyl-7-fluoro-3,3-dimethyl-2-oxo-2,3-dihydro-1H-indol-5-yl)-1-methyl-1H-pyrrole-2-carbonitrile], the IC50 turned out to be 29.5 nM.

With `CC(C)CN1C(=O)C(C)(C)c2cc(-c3ccc(C#N)n3C)cc(F)c21` [5-(7-fluoro-1-isobutyl-3,3-dimethyl-2-oxo-2,3-dihydro-1H-indol-5-yl)-1-methyl-1H-pyrrole-2-carbonitrile], the IC50 turned out to be 29.9 nM.

`C=CCN1C(=O)C(C)(C)c2cc(-c3ccc(C#N)n3C)cc(F)c21` [5-(1-allyl-7-fluoro-3,3-dimethyl-2-oxo-2,3-dihydro-1H-indol-5-yl)-1-methyl-1H-pyrrole-2-carbonitrile]: the IC50 is 4.5 nM.

Consider `COC(=O)CN1C(=O)C(C)(C)c2cc(-c3ccc(C#N)n3C)cc(F)c21` [methyl [5-(5-cyano-1-methyl-1H-pyrrol-2-yl)-7-fluoro-3,3-dimethyl-2-oxo-2,3-dihydro-1H-indol-1-yl]acetate], for which the IC50 turned out to be 48 nM.

Regarding `Cn1c(C#N)ccc1-c1cc(F)c2c(c1)C(C)(C)C(=O)N2Cc1ccccc1` [5-(1-benzyl-7-fluoro-3,3-dimethyl-2-oxo-2,3-dihydro-1H-indol-5-yl)-1-methyl-1H-pyrrole-2-carbonitrile], the IC50 was 164 nM.

`Cn1c(C#N)ccc1-c1cc(F)c2c(c1)CC(=O)N2` [5-(7-fluoro-2-oxo-2,3-dihydro-1H-indol-5-yl)-1-methyl-1H-pyrrole-2-carbonitrile]: the IC50 was found to be 109 nM.

Take `CCC1(CC)C(=O)Nc2c(F)cc(-c3ccc(C#N)n3C)cc21` [5-(3,3-diethyl-7-fluoro-2-oxo-2,3-dihydro-1H-indol-5-yl)-1-methyl-1H-pyrrole-2-carbonitrile]: the IC50 worked out at 4.95 nM.

As to `C#CCN1C(=O)C(C)(C)c2cc(-c3ccc(C#N)n3C)cc(F)c21` [5-(7-fluoro-3,3-dimethyl-2-oxo-1-prop-2-yn-1-yl-2,3-dihydro-1H-indol-5-yl)-1-methyl-1H-pyrrole-2-carbonitrile], the IC50 was found to be 30 nM.

Consider `Cn1c(C#N)ccc1-c1cc(F)c2c(c1)C1(CC1)C(=O)N2` [5-(7′-fluoro-2′-oxo-1′,2′-dihydrospiro[cyclopropane-1,3′-indol]-5′-yl)-1-methyl-1H-pyrrole-2-carbonitrile], for which the IC50 is 10.8 nM.
